Assay results as given in paper PMC6350196 (Drug Metabolism Letters, 2018).

Test: QSRR estimation of CHIn+Fbt and CHIbt from LC retention times
Format: physicochemical
Conditions: predicted (QSRR, equation 13); parent-drug label = average for that drug

Structure (SMILES): CC(C)c1c(C(=O)Nc2ccccc2)c(-c2ccccc2)c(-c2ccc(F)cc2)n1CC[C@@H](O)C[C@@H](O)CC(=O)O [atorvastatin]
- CHIbt, aromatic oxidation (w/o HB): -16.4
- CHIbt, aromatic oxidation with HB: -2.9
